Experiments:
Experiment in all cases: relative viability (nuclei count vs DMSO), 5 days (fraction); higher = more cells survive
NCI-H2023 = system: NCI-H2023
How it was run: (§1)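 After 5 days of treatment, lung cancer cells in 1536-well plates were fixed and stained in a single step (final 0.05% Triton X-100, 1% formaldehyde, 1 ug/ml Hoechst) and their nuclei counted on 4× images. Treatment had been applied by pin tool the day after seeding as one drug alone or as a fixed anchor-drug dose with five library-drug doses (not always all listed) in √10 steps. Relative viability is the nuclei count of treated wells divided by that of vehicle wells, and values are medians of duplicate plates.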

HCC-44 = system: HCC-44
How it was run: as §1

HCC-366 = system: HCC-366
How it was run: as §1

NCI-H441 = system: NCI-H441
How it was run: as §1

NCI-H1975 = system: NCI-H1975
How it was run: as §1

NCI-H1651 = system: NCI-H1651
How it was run: as §1

NCI-H2085 = system: NCI-H2085
How it was run: as §1

LU99A = system: LU99A
How it was run: as §1

NCI-H1734 = system: NCI-H1734
How it was run: as §1

CAL-12T = system: CAL-12T
How it was run: as §1

NCI-H2342 = system: NCI-H2342
How it was run: as §1

NCI-H358 = system: NCI-H358
How it was run: as §1

NCI-H1395 = system: NCI-H1395
How it was run: as §1

NCI-H460 = system: NCI-H460
How it was run: as §1

NCI-H1355 = system: NCI-H1355
How it was run: as §1

BEN = system: BEN
How it was run: as §1

NCI-H1650 = system: NCI-H1650
How it was run: as §1

NCI-H1755 = system: NCI-H1755
How it was run: as §1

EKVX = system: EKVX
How it was run: as §1

NCI-H1437 = system: NCI-H1437
How it was run: as §1

NCI-H838 = system: NCI-H838
How it was run: as §1

LOU-NH91 = system: LOU-NH91
How it was run: as §1

NC(=O)Nc1cc(-c2cccc(F)c2)sc1C(=O)N[C@H]1CCCNC1 [AZD7762] + CC(=O)Nc1cccc(-n2c(=O)n(C3CC3)c(=O)c3c(Nc4ccc(I)cc4F)n(C)c(=O)c(C)c32)c1 [Trametinib] (partner 0.02 µM)
relative viability (NCI-H2023; first compound 0.01 µM): 0.596
relative viability (NCI-H2023; first compound 0.03162 µM): 0.46
relative viability (NCI-H2023; first compound 0.1 µM): 0.293
relative viability (NCI-H2023; first compound 0.3162 µM): 0.156
relative viability (NCI-H2023; first compound 1 µM): 0.132
relative viability (HCC-44; first compound 0.01 µM): 1.13
relative viability (HCC-44; first compound 0.03162 µM): 1.04
relative viability (HCC-44; first compound 0.1 µM): 1.12
relative viability (HCC-44; first compound 0.3162 µM): 1.15
relative viability (HCC-44; first compound 1 µM): 1.16
relative viability (HCC-366; first compound 0.01 µM): 0.358
relative viability (HCC-366; first compound 0.03162 µM): 0.329
relative viability (HCC-366; first compound 0.1 µM): 0.363
relative viability (HCC-366; first compound 0.3162 µM): 0.325
relative viability (HCC-366; first compound 1 µM): 0.13
relative viability (NCI-H441; first compound 0.01 µM): 0.511
relative viability (NCI-H441; first compound 0.03162 µM): 0.574
relative viability (NCI-H441; first compound 0.1 µM): 0.543
relative viability (NCI-H441; first compound 0.3162 µM): 0.517
relative viability (NCI-H441; first compound 1 µM): 0.359
relative viability (NCI-H1975; first compound 0.01 µM): 0.341
relative viability (NCI-H1975; first compound 0.03162 µM): 0.377
relative viability (NCI-H1975; first compound 0.1 µM): 0.331
relative viability (NCI-H1975; first compound 0.3162 µM): 0.345
relative viability (NCI-H1975; first compound 1 µM): 0.24
relative viability (NCI-H1651; first compound 0.01 µM): 0.882
relative viability (NCI-H1651; first compound 0.03162 µM): 0.852
relative viability (NCI-H1651; first compound 0.1 µM): 0.871
relative viability (NCI-H1651; first compound 0.3162 µM): 0.873
relative viability (NCI-H1651; first compound 1 µM): 0.766
relative viability (NCI-H2085; first compound 0.01 µM): 0.514
relative viability (NCI-H2085; first compound 0.03162 µM): 0.559
relative viability (NCI-H2085; first compound 0.1 µM): 0.632
relative viability (NCI-H2085; first compound 0.3162 µM): 0.713
relative viability (NCI-H2085; first compound 1 µM): 0.357
relative viability (LU99A; first compound 0.01 µM): 0.595
relative viability (LU99A; first compound 0.03162 µM): 0.522
relative viability (LU99A; first compound 0.1 µM): 0.523
relative viability (LU99A; first compound 0.3162 µM): 0.586
relative viability (LU99A; first compound 1 µM): 0.43
relative viability (NCI-H1734; first compound 0.01 µM): 0.761
relative viability (NCI-H1734; first compound 0.03162 µM): 0.683
relative viability (NCI-H1734; first compound 0.1 µM): 0.812
relative viability (NCI-H1734; first compound 0.3162 µM): 0.641
relative viability (NCI-H1734; first compound 1 µM): 0.562
relative viability (CAL-12T; first compound 0.01 µM): 0.391
relative viability (CAL-12T; first compound 0.03162 µM): 0.402
relative viability (CAL-12T; first compound 0.1 µM): 0.377
relative viability (CAL-12T; first compound 0.3162 µM): 0.325
relative viability (CAL-12T; first compound 1 µM): 0.217
relative viability (NCI-H2342; first compound 0.01 µM): 0.861
relative viability (NCI-H2342; first compound 0.03162 µM): 0.756
relative viability (NCI-H2342; first compound 0.1 µM): 0.828
relative viability (NCI-H2342; first compound 0.3162 µM): 0.863
relative viability (NCI-H2342; first compound 1 µM): 0.97
relative viability (NCI-H358; first compound 0.01 µM): 0.136
relative viability (NCI-H358; first compound 0.03162 µM): 0.135
relative viability (NCI-H358; first compound 0.1 µM): 0.148
relative viability (NCI-H358; first compound 0.3162 µM): 0.145
relative viability (NCI-H358; first compound 1 µM): 0.1
relative viability (NCI-H1395; first compound 0.01 µM): 1.18
relative viability (NCI-H1395; first compound 0.03162 µM): 1.12
relative viability (NCI-H1395; first compound 0.1 µM): 0.92
relative viability (NCI-H1395; first compound 0.3162 µM): 0.637
relative viability (NCI-H1395; first compound 1 µM): 0.368
relative viability (NCI-H460; first compound 0.01 µM): 0.327
relative viability (NCI-H460; first compound 0.03162 µM): 0.179
relative viability (NCI-H460; first compound 0.1 µM): 0.226
relative viability (NCI-H460; first compound 0.3162 µM): 0.171
relative viability (NCI-H460; first compound 1 µM): 0.0341
relative viability (NCI-H1355; first compound 0.01 µM): 0.406
relative viability (NCI-H1355; first compound 0.03162 µM): 0.466
relative viability (NCI-H1355; first compound 0.1 µM): 0.368
relative viability (NCI-H1355; first compound 0.3162 µM): 0.441
relative viability (NCI-H1355; first compound 1 µM): 0.522
relative viability (BEN; first compound 0.01 µM): 1.15
relative viability (BEN; first compound 0.03162 µM): 1.11
relative viability (BEN; first compound 0.1 µM): 1.09
relative viability (BEN; first compound 0.3162 µM): 1.09
relative viability (BEN; first compound 1 µM): 0.968
relative viability (NCI-H1650; first compound 0.01 µM): 0.65
relative viability (NCI-H1650; first compound 0.03162 µM): 0.659
relative viability (NCI-H1650; first compound 0.1 µM): 0.631
relative viability (NCI-H1650; first compound 0.3162 µM): 0.532
relative viability (NCI-H1650; first compound 1 µM): 0.209
relative viability (NCI-H1755; first compound 0.01 µM): 0.788
relative viability (NCI-H1755; first compound 0.03162 µM): 0.823
relative viability (NCI-H1755; first compound 0.1 µM): 0.76
relative viability (NCI-H1755; first compound 0.3162 µM): 0.694
relative viability (NCI-H1755; first compound 1 µM): 0.635
relative viability (EKVX; first compound 0.01 µM): 0.345
relative viability (EKVX; first compound 0.03162 µM): 0.502
relative viability (EKVX; first compound 0.1 µM): 0.371
relative viability (EKVX; first compound 0.3162 µM): 0.314
relative viability (EKVX; first compound 1 µM): 0.279
relative viability (NCI-H1437; first compound 0.01 µM): 0.561
relative viability (NCI-H1437; first compound 0.03162 µM): 0.53
relative viability (NCI-H1437; first compound 0.1 µM): 0.549
relative viability (NCI-H1437; first compound 0.3162 µM): 0.662
relative viability (NCI-H1437; first compound 1 µM): 0.494
relative viability (NCI-H838; first compound 0.01 µM): 0.632
relative viability (NCI-H838; first compound 0.03162 µM): 0.513
relative viability (NCI-H838; first compound 0.1 µM): 0.483
relative viability (NCI-H838; first compound 0.3162 µM): 0.537
relative viability (NCI-H838; first compound 1 µM): 0.305
relative viability (LOU-NH91; first compound 0.01 µM): 0.78
relative viability (LOU-NH91; first compound 0.03162 µM): 0.793
relative viability (LOU-NH91; first compound 0.1 µM): 0.761
relative viability (LOU-NH91; first compound 0.3162 µM): 0.66
relative viability (LOU-NH91; first compound 1 µM): 0.67

Source: the supplement of paper PMC10307832
